GI50 and IC50 data for two compounds are collected here from patent publication US20240400521A1, “QUINAZOLINE COMPOUND, COMPOSITION, AND APPLICATION THEREOF” (BEIJING SCITECH-MQ PHARMACEUTICALS LIMITED, priority 2021, published 2024).

The pIC50 is the negative decadic logarithm of the IC50, by convention in mol/L.

pIC50: −log10 of the molar value.

Assay [1] addresses Ba/F3-EGFR-VIII cells (Homo sapiens, UniProt P00533, DELINS30-297G, cells depend on it). The assay can be described thus: Inhibition of cell proliferation, CTG method, Ba/F3-EGFR-VIII. Type of assay: cell-based. The following applies: 72 hours, read-out: Ba/F3 EGFRvIII IC50. The text has this: (§1) The present application examined the in vitro anti-proliferative activity of the compounds of the present disclosure against in vitro cultured HCC-827, Ba/F3-EGFR-VIII and Ba/F3 EGFR D770_N771insSVD cell lines by CTG method.
(§2) Reagents and consumables: RPMI1640 (ThermoFisher, Cat. No. C11875500BT); DMEM (ThermoFisher, C11995500BT); fetal bovine serum (Hyclone, Cat. No. SV30087.03); 0.25% trypsin-EDTA (ThermoFisher, Cat. No. 25200072); penicillin-streptomycin (Hyclone, Cat. No. SV30010); DMSO (Life Science, Cat. No. 0231-500ML); CTG assay kit (Promega, Cat. No. G9243); 96-well plate (Corning, Cat. No. 3599); multifunctional plate reader (Perkin Elmer, Cat. No. Envision)
(§3) Cell lines: HCC-827 (from ATCC), Ba/F3-EGFR-VIII and Ba/F3 EGFR D770_N771insSVD (all from KYinno Biotechnology (Beijing) Co., Ltd.); all of the above cells were cultured with RPMI1640 medium containing 10% fetal bovine serum, 100 U/mL penicillin, and 100 μg/mL streptomycin in the culture process, and HCC-827 was cultured with DMEM medium containing 10% fetal bovine serum, 100 U/mL penicillin, and 100 μg/mL streptomycin.
(§4) • 1. The assay compound was dissolved with DMSO to form a stock solution and a gradient dilution was performed, followed by dilution with the corresponding medium to obtain a solution with 5-fold working concentration. • 2. Cells in logarithmic growth phase were adjusted to specific cell densities by dilution with culture medium, and 80 μL of cell suspension was added to a 96-well plate, such that plating densities of cells of HCC-827, Ba/F3-EGFR-VIII and Ba/F3 EGFR D770_N771insSVD were all 3000 cells/well. The cells of Ba/F3-EGFR-VIII and Ba/F3 EGFR D770_N771insSVD were used directly in the next step (treatment with compound), whereas the HCC-827 needed to be cultured overnight in a 37° C., 5% carbon dioxide gas incubator to adhere to the wall, and then treated with compounds. • 3. 20 μL of compound solution was added to each well of the 96-well plate that had been inoculated with cells. The highest concentration of the assayed compound was 10 μM, 4-fold serial dilution, a total of 9 concentrations, and duplicate wells. A control group without compound was also set up. • 4. The cells were cultured for another 72 hours, and then cell viability was detected by CTG assay kit. Signal values were read with a multifunctional plate reader (Perkin Elmer). GraphPad Prism software was used to create a dose-response curve and IC50 was calculated.

The target in assay [2] is T1, EGFR^WT kinase (Homo sapiens, UniProt P00533).
T1 construct: purchased Carna Biosciences 08-115
T1 sequence (P00533 25-1210): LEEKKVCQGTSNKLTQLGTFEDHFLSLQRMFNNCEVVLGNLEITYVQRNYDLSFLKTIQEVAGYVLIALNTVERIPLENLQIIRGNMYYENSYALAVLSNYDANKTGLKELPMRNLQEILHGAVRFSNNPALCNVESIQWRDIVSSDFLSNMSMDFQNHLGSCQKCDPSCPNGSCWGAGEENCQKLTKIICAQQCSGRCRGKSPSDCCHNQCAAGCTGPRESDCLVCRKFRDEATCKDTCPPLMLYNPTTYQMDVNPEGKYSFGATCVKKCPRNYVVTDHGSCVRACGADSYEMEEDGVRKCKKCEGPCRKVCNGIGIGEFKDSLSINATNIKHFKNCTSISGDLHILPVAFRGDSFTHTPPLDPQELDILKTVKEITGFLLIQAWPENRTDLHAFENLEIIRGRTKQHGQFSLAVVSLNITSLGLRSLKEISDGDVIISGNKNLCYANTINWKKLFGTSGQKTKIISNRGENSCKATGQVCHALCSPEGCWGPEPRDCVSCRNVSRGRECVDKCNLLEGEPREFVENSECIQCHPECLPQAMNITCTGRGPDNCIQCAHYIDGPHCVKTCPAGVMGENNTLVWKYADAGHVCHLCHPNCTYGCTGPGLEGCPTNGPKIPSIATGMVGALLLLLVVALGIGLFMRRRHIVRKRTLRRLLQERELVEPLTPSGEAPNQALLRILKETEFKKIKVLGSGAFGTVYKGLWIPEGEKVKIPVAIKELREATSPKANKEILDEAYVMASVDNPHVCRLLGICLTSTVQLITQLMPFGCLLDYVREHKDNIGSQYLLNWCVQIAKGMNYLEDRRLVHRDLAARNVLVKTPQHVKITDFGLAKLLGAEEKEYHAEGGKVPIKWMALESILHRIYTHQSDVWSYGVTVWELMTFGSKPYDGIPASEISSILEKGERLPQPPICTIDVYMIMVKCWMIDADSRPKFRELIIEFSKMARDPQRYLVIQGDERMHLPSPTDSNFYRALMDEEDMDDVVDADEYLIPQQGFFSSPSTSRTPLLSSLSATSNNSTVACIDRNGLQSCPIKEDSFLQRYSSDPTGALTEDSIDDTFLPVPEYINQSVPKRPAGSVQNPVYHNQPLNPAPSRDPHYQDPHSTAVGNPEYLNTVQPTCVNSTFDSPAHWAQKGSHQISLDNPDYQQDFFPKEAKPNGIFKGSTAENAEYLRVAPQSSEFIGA
The assay can be described thus: EGFR^WT kinase assay (ULight peptide / Eu-PT66 antibody detection). Type of assay: biochemical. The text has this: (§5) Reagents and consumables: ULight™-labeled Ploy GT Peptide (Perkin Elmer, Cat. No. TRF-0100-M); ULight™-labeled JAK-1 (Try1023) Peptide (Perkin Elmer, Cat. No. TRF-0121-M); Eu-W1024-labeled Anti-Phosphotyrosine Antibody (PT66) (Perkin Elmer, Cat. No. AD0068); 10×Detection Buffer (Perkin Elmer, Cat. No. CR97-100); HER2 Kinase (Carna Biosciences, Cat. No. 08-016); EGFR kinase (Carna Biosciences, Cat. No. 08-115); HEPES (GIBCO, Cat. No. 15630-080); EGTA (Sigma, Cat. No. 03777-10G); EDTA (Sigma, Cat. No. EDS-100G); MgCl2 (Sigma, Cat. No. 63069-100ML); DTT (Sigma, Cat. No. 43816-10ML); Tween-20 (Sigma, Cat. No. P7949-100ML); DMSO (Life Science, Cat. No. 0231-500ML); 384-well plates (Perkin Elmer, Cat. No. 607290); multifunctional plate reader (Perkin Elmer, Cat. No. Envision)
(§6) Preparation of compound solution: The assay compound was dissolved in DMSO to form a 10 mM stock solution. Prior to use, the compound was diluted to 0.25 mM in DMSO (100 times the final concentration of the diluent) and then subjected to a 3-fold concentration gradient dilution to obtain a total of 11 concentrations. The solution was diluted with buffer to a diluent with 4× the final concentration when the drug was added.
(§7) EGFR^WT kinase assay: buffer was prepared, and 3.48 nM 4× EGFR kinase solution, 600 μM 4× ATP solution, and 400 nM 4×ULight™-labeled JAK-1 (Try1023) Peptide substrate solution was prepared using the buffer. After the preparation was completed, the enzyme was mixed with different concentrations of compounds pre-prepared by dilution, and the mixture was left to stand at room temperature for 5 min. Each concentration was performed in duplicate. The corresponding substrate and ATP were added and the mixture was reacted at room temperature for 120 minutes (with negative and positive controls). After completion of the reaction, PT66 detection antibody was added. The mixture was incubated at room temperature for 60 minutes, and then detected by Envision.
(§8) Data Calculation: the reading of well and inhibition rate were calculated using Excel, wherein reading of well=10000*(well EU665 value)/(well EU615 value), and inhibition rate=[(reading of positive control well−reading of assay well)/(reading of positive control well−reading of negative control well)]*100%. Compound concentrations and corresponding inhibition rates were input into GraphPad Prism for processing to calculate IC50 values.

For assay [3], the target named is T2, HER2 kinase (Homo sapiens, UniProt P04626).
T2 construct: purchased Carna Biosciences 08-016
T2 sequence (P04626 23-1255): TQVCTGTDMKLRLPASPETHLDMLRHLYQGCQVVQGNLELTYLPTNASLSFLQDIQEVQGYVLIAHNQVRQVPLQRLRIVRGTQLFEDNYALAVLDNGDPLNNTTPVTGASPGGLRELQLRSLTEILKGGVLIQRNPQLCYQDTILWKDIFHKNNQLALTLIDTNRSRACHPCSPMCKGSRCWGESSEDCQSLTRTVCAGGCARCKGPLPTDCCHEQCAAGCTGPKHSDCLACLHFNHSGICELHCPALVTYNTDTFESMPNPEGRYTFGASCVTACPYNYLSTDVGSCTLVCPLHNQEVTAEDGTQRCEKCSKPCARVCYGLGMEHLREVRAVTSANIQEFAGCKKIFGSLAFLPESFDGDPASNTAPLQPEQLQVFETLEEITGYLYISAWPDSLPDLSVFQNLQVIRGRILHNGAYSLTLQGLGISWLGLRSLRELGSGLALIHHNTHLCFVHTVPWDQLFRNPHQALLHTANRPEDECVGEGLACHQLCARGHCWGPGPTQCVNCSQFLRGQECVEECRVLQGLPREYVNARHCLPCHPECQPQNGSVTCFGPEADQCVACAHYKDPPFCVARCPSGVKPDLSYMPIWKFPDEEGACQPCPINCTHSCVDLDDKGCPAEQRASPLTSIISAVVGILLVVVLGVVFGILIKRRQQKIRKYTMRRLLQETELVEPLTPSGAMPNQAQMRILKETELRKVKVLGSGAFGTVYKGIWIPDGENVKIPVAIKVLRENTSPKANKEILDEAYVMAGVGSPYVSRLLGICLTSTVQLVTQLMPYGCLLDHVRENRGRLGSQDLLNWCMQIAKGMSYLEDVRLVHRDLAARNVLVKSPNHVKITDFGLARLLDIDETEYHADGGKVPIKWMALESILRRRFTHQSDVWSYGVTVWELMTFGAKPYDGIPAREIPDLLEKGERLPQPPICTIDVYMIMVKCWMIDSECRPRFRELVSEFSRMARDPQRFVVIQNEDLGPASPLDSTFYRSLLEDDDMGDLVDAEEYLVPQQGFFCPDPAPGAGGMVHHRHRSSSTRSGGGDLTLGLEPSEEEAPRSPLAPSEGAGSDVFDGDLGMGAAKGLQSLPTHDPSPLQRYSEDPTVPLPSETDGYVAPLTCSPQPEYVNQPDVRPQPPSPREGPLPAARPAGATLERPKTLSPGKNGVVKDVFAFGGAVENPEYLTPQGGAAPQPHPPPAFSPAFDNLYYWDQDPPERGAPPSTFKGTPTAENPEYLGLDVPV
Briefly: HER2 kinase assay (ULight peptide / Eu-PT66 antibody detection). The format is biochemical.
From the text: as §5, §6
as §7, with “HER2 kinase” for “EGFR^WT kinase”, “and 40” for “and 3.48”, “4× HER2” for “4× EGFR”, “solution, 40” for “solution, 600”, “4×ULight™-labeled Ploy GT” for “4×ULight™-labeled JAK-1 (Try1023)”, “solution were” for “solution was”
as §8

Assay [4] concerns HCC-827 cells. The assay can be described thus: Inhibition of cell proliferation, CTG method, HCC-827. The format is cell-based. The note with it: Homo sapiens, HCC827, 72 hours.
From the text: as §1, §2, §3, §4

In assay [5] the target is Ba/F3 EGFR D770_N771insSVD cells (Homo sapiens, UniProt P00533, DUP768-770, cells depend on it). The assay can be described thus: Inhibition of cell proliferation, CTG method, Ba/F3 EGFR D770_N771insSVD. Type of assay: cell-based. The following applies: 72 hours, read-out: Ba/F3 EGFR D770_N771insSVD IC50.
Sequence of Ba/F3 EGFR D770_N771insSVD cells (P00533 with tags, fused parts or gaps DUP768-770): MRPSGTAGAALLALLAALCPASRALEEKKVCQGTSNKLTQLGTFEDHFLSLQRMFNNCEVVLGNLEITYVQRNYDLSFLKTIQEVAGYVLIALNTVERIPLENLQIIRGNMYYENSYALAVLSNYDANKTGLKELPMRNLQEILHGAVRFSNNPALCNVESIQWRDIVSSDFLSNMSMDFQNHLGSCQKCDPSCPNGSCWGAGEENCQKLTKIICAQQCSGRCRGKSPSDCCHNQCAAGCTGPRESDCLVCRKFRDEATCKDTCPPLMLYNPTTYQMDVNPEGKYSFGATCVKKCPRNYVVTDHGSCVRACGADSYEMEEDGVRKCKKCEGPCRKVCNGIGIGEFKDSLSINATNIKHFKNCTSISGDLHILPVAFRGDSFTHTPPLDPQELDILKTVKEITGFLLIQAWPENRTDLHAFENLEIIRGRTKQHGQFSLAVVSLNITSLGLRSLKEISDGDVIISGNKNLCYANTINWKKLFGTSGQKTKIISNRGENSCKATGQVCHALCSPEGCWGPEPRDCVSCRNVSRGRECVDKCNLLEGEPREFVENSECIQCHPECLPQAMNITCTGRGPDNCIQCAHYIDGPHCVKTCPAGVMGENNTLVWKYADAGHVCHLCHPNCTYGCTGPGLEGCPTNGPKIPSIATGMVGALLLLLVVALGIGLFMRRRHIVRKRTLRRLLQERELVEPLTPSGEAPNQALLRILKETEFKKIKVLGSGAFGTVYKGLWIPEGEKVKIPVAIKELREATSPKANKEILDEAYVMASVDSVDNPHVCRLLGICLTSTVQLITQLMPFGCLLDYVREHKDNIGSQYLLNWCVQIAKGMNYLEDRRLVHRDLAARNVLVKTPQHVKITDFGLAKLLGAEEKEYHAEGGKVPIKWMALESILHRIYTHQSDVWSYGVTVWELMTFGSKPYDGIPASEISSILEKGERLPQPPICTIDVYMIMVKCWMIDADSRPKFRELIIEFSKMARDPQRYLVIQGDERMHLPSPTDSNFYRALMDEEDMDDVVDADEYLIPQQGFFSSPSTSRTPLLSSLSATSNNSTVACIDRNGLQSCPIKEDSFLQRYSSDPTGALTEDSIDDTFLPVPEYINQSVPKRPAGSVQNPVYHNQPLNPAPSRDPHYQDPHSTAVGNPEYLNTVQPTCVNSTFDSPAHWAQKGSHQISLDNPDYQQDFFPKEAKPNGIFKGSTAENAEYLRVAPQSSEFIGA
From the text: as §1, §2, §3, §4

Sequence of Ba/F3-EGFR-VIII cells (P00533 with tags, fused parts or gaps DELINS30-297G): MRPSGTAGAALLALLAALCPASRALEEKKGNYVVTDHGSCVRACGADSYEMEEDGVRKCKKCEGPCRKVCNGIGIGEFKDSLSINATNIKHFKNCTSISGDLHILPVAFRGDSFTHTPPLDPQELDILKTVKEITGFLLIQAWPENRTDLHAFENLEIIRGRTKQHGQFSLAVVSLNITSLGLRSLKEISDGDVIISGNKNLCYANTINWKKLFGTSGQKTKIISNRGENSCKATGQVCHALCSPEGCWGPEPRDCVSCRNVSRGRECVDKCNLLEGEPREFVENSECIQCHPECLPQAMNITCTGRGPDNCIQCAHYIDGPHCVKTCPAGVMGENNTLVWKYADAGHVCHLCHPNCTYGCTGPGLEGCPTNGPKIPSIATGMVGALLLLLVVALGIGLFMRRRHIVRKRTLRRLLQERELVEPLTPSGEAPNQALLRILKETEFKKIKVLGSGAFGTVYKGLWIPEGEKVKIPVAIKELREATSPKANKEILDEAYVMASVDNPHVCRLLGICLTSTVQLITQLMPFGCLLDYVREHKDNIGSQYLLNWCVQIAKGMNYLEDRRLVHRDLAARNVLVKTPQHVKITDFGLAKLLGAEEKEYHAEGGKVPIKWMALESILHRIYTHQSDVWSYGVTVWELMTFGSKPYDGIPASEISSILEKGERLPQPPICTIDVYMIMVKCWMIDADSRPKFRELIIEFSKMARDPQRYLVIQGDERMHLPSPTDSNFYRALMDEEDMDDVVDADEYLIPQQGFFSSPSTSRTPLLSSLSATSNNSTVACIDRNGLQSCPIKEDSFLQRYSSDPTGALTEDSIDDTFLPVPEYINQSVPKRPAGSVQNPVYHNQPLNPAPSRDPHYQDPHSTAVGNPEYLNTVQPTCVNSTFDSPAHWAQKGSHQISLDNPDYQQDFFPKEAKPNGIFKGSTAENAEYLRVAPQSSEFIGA

As for `CN(C)C/C=C/C(=O)Nc1ccc2ncnc(Nc3cccc(Cl)c3F)c2c1OCCC(F)(F)F` [Example 18, (E)-N-(4-((3-chloro-2-fluorophenyl)amino)-5-(3,3,3-trifluoropropoxy)quinazolin-6-yl)-4-(dimethylamino)but-2-enamide], the GI50 in assay [1] is 5 to 50 nM; in assay [5], 50 to 500 nM. In addition, the pIC50 was not below 9.00 in assay [2], 6.00 to 7.00 in assay [3] and not below 8.30 in assay [4].

As to `COc1c(NC(=O)/C=C/CN(C)C)ccc2ncnc(Nc3ccc(Cl)c(Cl)c3F)c12` [Example 19, (E)-N-(4-((3,4-dichloro-2-fluorophenyl)amino)-5-methoxyquinazolin-6-yl)-4-(dimethylamino)but-2-enamide], the GI50 in assay [1] fell in the range of 5 to 50 nM; in assay [5], 50 to 500 nM. Further, the figures for the negative logarithm of the IC50 (pIC50) in assay [2], in assay [3] and in assay [4] were not below 9.00, 7.00 to 8.00 and not below 8.30, respectively.
